The structures appear in SMILES notation.

The target of assay [1] is T1, GST-ABI2 in the presence of PYR1^K59R,F108A,S122G (Arabidopsis thaliana, UniProt O49686, F108A/K59R/S122G).
T1 construct: 6x-His; made in house; host or cells: E. coli BL21[DE3]pLysS (receptor)
The assay is described as follows: PP2C activity assay (pNPP). The settings on record: PYR1^K59R,F108A,S122G 1200 nM, PP2C 600 nM. The format is biochemical. The text has this:
(§1) One possibility in any functional screen conducted in a heterologous organism such as S. cerevisiae is that mutants identified may only work in the context of the heterologous expression system. We therefore examined whether recombinant PYR1^K59R,F108A,S122G and PYR1^MANDI proteins inhibit PP2C activity in vitro, as is well documented for wild type PYR1 in response to ABA (Park et al., 2009). Both receptors were cloned into pET28 to generate 6×-His (SEQ ID NO:109) tagged receptors. These were expressed in BL21[DE3]pLysS E. coli host cells at 18° C. overnight. 6×-His-fusion proteins were purified from sonicated lysates using Ni-NTA agarose (Qiagen, USA), according to the manufacturer's instructions. For PP2C assays, recombinant GST-HAB1 and GST-ABI2 were expressed and purified as described previously (Park et al., 2009) and PP2C activity assayed conducted using the colorimetric phosphatase substrate para-nitrophenyl phosphate (pNPP) as previously described (Park et al., 2009). PP2C assays were conducted using 600 nM of PP2C and 1200 nM recombinant receptors. […] We note that these mutant receptors cannot respond to ABA due to the K59R mutation they contain, which abolishes ABA responsiveness.

The target of assay [2] is T2, GST-HAB1 in the presence of PYR1^K59R,F108A,S122G (Arabidopsis thaliana, UniProt O49686, F108A/K59R/S122G).
T2 construct: 6x-His; made in house; host or cells: E. coli BL21[DE3]pLysS (receptor)
T2 sequence (O49686 whole entry K59R/F108A/S122G): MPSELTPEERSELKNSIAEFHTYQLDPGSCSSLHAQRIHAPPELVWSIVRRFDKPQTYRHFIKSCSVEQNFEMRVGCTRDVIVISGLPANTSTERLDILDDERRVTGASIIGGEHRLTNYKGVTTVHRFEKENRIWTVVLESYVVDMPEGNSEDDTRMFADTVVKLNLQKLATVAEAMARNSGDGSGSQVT
T2 sequence (Q9CAJ0 23-511 partner): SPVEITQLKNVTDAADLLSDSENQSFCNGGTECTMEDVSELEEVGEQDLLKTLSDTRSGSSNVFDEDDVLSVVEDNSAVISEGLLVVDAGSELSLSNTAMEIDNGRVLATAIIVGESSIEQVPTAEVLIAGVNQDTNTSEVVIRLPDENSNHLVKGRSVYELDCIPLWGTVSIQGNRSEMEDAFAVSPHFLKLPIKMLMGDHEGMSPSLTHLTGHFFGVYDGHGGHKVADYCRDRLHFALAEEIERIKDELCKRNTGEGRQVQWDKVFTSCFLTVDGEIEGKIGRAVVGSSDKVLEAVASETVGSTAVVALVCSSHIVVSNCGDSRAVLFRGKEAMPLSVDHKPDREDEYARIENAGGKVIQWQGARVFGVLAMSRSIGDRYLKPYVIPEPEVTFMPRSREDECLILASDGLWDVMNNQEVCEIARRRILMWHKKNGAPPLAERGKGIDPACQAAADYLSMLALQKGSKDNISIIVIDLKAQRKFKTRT
The assay is described as follows: PP2C activity assay (pNPP). The format is biochemical. Conditions: PYR1^K59R,F108A,S122G 1200 nM, PP2C 600 nM.
Source text: as §1

For assay [3], the target named is T3, GST-ABI2 in the presence of PYR1^MANDI (Arabidopsis thaliana, UniProt O49686, F108A/F159L/K59R/S122G/V81I/Y58H).
T3 construct: 6×-His (N); made in house; host or cells: BL21[DE3]pLysS E. coli (receptor)
T3 sequence (O49686 whole entry Y58H/K59R/V81I/F108A/S122G/F159L): as the sequence (O49686 whole entry K59R/F108A/S122G) above, with Y58H, V81I, F159L counted along it
T3 sequence (O04719 whole entry partner): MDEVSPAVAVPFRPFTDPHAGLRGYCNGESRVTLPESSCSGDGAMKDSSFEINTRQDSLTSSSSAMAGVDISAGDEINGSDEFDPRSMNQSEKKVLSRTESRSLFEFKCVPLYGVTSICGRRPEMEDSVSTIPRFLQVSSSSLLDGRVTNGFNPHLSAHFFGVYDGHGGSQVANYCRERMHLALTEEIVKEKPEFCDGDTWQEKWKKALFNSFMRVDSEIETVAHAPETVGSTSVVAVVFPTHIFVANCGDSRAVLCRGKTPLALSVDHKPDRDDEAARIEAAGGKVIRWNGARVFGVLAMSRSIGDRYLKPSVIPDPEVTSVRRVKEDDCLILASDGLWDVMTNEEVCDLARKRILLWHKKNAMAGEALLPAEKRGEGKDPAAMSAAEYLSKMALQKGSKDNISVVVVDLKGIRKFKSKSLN
The assay is described as follows: PP2C activity assay (pNPP). The format is biochemical. The settings on record: PYR1^MANDI 1200 nM, PP2C 600 nM.
Source text: as §1

Assay [4] addresses T4, GST-HAB1 in the presence of PYR1^MANDI (Arabidopsis thaliana, UniProt O49686, F108A/F159L/K59R/S122G/V81I/Y58H).
T4 construct: 6×-His (N); made in house; host or cells: BL21[DE3]pLysS E. coli (receptor)
The assay can be described thus: PP2C activity assay (pNPP). The format is biochemical. Conditions: PYR1^MANDI 1200 nM, PP2C 600 nM.
Source text: as §1

Assay [5] has as its system MDP1 and MDP2 genotypes (35S::PYR1^MANDI). The assay can be described thus: survival after water deprivation and re-watering. It is filed as in vivo, Arabidopsis. Conditions: 1 μM mandipropamid, 11 days water deprivation. As to the method:
Examples 6 and 8 disclosed that mandipropamid treatments of PYR1^MANDI transgenic plants are sufficient to close guard cells (as indicated by thermal imaging) and confer drought tolerance. To investigate these responses further we performed three additional experiments using wild type Columbia, PYR1-OX and the MDP1 and MDP2 genotypes. Each experiment was conducted independently of the other at different times over the course of 8 months. Each experiment characterized 3 pots of each genotype (each pot contained 4 plants). After 2 weeks (exp. 1) or 3 weeks (Experiments 2 and 3) watering was ceased and the plants were treated with a mock or 1 μM mandipropamid solution made in water containing 0.02% Silwet L-77. These treatments were repeated every 4 (Experiment 1) or 3 days (Experiments 2 and 3). […] After 10 to 11 days of water deprivation the plants were re-watered to assess survival rates after extreme water deprivation. […] Inset in each image are the survival counts from Experiment 1 (upper numbers) and Experiments 2 and 3 (lower numbers). The survival rates have been separated because the experimental protocol for Experiment 1 differed from Experiments 2 and 3.
Plants were grown for ˜4 weeks until initial floral meristems became obvious, after which watering was ceased and the plants were treated with either a mock or 1 μM mandipropamid solution. […]

The target in assay [6] is T5, 6×-His-GFP-PYR1^MANDI and GFP-HAB1 (Arabidopsis thaliana, UniProt O49686, F108A/F159L/K59R/S122G/V81I/Y58H).
T5 construct: expressed in transfected cells; host or cells: Nicotiana benthamiana leaves, Agrobacterium tumefaciens GV3101 infiltration
T5 sequence (O49686 whole entry Y58H/K59R/V81I/F108A/S122G/F159L): as the sequence (O49686 whole entry K59R/F108A/S122G) above, with Y58H, V81I, F159L counted along it
T5 sequence (Q9CAJ0 23-511 partner): as the sequence (Q9CAJ0 23-511 partner) above
The assay is described as follows: co-precipitation after transient co-expression in leaves. It is filed as in vivo, Nicotiana benthamiana. Conditions: 50 μM mandipropamid, 20 hours. The text has this:
We therefore investigated if the mandipropamid promoted interaction between PYR1^MANDI and the PP2C HAB1 could be observed using similar experiments. To conduct these experiments PYR1^MANDI was cloned as a 6×-His-GFP fusion protein in the vector pEGAD (Cutler et al., 2000). HAB1 was cloned as a GFP fusion protein in the vector pEGAD. Both constructs were transformed into Agrobacterium tumefaciens (GV3101) and utilized in transient expression experiments. The Agrobacterium strains harboring the receptor, PP2C and the silencing suppressor p19 were mixed together in ratios corresponding to 0.1, 1.0 and 0.5 final OD600 units respectively. The mixture was infiltrated into two separate N. benthamiana leaves and 2 days later the leaves were treated with either 50 μM mandipropamid or mock solutions made in water containing 0.02% Silwet L-77. 20 hours later the leaves were homogenized in liquid nitrogen, re-suspended in an extraction buffer composed of 1×TBS, 0.1% NP-40, 1 mM DTT, 10% glycerol, and 1× plant protease inhibitor cocktail (Sigma, USA) and clarified by centrifugation. […] Both PYR1^MANDI and HAB1 were expressed as GFP fusion proteins and could therefore be detected with an anti-GFP antibody. The blots were probed with an anti-GFP monoclonal primary antibody and detected using an anti-mouse IgG-HP sheep secondary antibody using ECL (Amersham, USA) development.

T1 sequence (O49686 whole entry K59R/F108A/S122G): as the sequence (O49686 whole entry K59R/F108A/S122G) above
T1 sequence (O04719 whole entry partner): as the sequence (O04719 whole entry partner) above
T4 sequence (O49686 whole entry Y58H/K59R/V81I/F108A/S122G/F159L): as the sequence (O49686 whole entry K59R/F108A/S122G) above, with Y58H, V81I, F159L counted along it
T4 sequence (Q9CAJ0 23-511 partner): as the sequence (Q9CAJ0 23-511 partner) above

On to `C#CCOc1ccc(CCNC(=O)C(OCC#C)c2ccc(Cl)cc2)cc1OC` (stereo not drawn) [Mandipropamid, mandipropamid], for which the “inhibition of ABI2 PP2C activity” value in assay [1] and in assay [3] was “saturable inhibition” in each case. The “inhibition of HAB1 PP2C activity” value in assay [2] and in assay [4] was “saturable inhibition” throughout. The “survival rates after water deprivation and re-watering, relative to wild type and PYR1-OX controls” value in assay [5] is reported as “greatly improved”. Also, the “interaction of 6×-His-GFP-PYR1^MANDI and GFP-HAB1 in planta” value in assay [6] is listed as “mandipropamid-dependent physical interaction”.

These data come from US9738902B2, “Modified PYR/PYL receptors activated by ligands” (priority 2013, dated 2017).
